From US12503717B2, “Systems and methods for modeling disease and assessing adverse side effects of therapeutics therefor” (NOVOHEART INTERNATIONAL LIMITED, priority 2016, dated 2025)
Marks after values point to notes of the source that are not given here.

Assays:
[1] = system: hvCAS (human ventricular cardiac anisotropic sheet of HES2 hESC-derived ventricular cardiomyocytes); type: cell-based
Protocol: hvCAS preparations were loaded with di-8-ANEPPS (10 μM; D-3167; Molecular Probes)/[…] (0.04%; P-3000MP; Life Technologies) for 1 hour at 37° C. in DMEM-F12, followed by incubation at room temperature (RT) for 15 minutes in Blebbistatin (50 μM, B0560; Sigma-Aldrich) in Tyrode's solution. Tyrode's solution consists of 140 mM NaCl, 5 mM KCl, 1 mM MgCl2, 1 mM CaCl2, 10 mM D-glucose, and 10 mM HEPES at pH 7.4 to minimize potential interference of optical mapping signals by motion artifacts. The dye-loaded hvCAS preparations were bathed in Tyrode's solution which was maintained at 35-37° C. using a culture dish incubator (Warners Instruments). High-resolution optical mapping of AP and conduction properties was performed using a MiCam Ultima (SciMedia, CA, USA) with a 1× objective and a 1× condensing lens to yield a 10 mm by 10 mm field of view. Fluorescence imaging was performed using a halogen light filtered by a 515±35 nm band-pass excitation filter and a 590 nm high-pass emission filter. Data were collected at a sampling rate of 200 Hz and analyzed using BVAna software (SciMedia). A programmable stimulator (Master8; AMPI, Israel) was enrolled to deliver pacing stimuli (10V, 10-ms pulse duration) via a unipolar point-stimulation electrode (Harvard Apparatus, MA, USA) placed perpendicular to the hvCAS surface.
A point stimulation was applied at the center of an […] preparation following the schematic illustration (FIG. 2E) and steady state pacing (10 ms, 10 V) was first applied from 0.5 Hz through to 3 Hz (i.e., 30 to 180 bpm) with 0.5 Hz increments, unless there was a loss of 1:1 capture using Master-8 (AMPI, Israel). A standard (S1-S2) programmed electrical stimulation (PES) protocol was then introduced to further evaluate arrhythmogenicity, similar to what has been previously described^[15]. A train of eight S1 stimuli was delivered at 1.5 Hz followed by a premature extra stimulus (S2) with S1-S2 interval initiated at 550 ms and consecutively shortened in steps of 50 ms until capture failed.
A set of selection criteria was strictly followed before an hvCAS was employed for subsequent drug testing procedures to ensure fair comparison. In particular, the selection criteria included (1) observation of a consistent propagation signal across the whole field of view, (2) a maximum capture frequency of at least 1.5 Hz and (3) no re-entry at baseline. Drugs were then added at three cumulative doses to cover the therapeutic range and HERG IC50 was determined using a conventional technique known in the art.^[33] All drugs were purchased from Sigma-aldrich (MO, USA). […] Steady-state pacing and PES were repeated, as described above, for each dose unless re-entry occurred before the highest dose was applied. Action potential parameters and conduction properties were subsequently analyzed using Clampfit, with APD90 defined as the time from the peak to 90% repolarization. Data are individually presented as mean±SD and statistically compared using Student's t-test with p<0.05 considered statistically significant.

[2] = cited from earlier work

Row | Structure (SMILES) | arrhythmic risk compared to the respective vehicle control (FIG. 3H) [1] | Chirality of Re-entry: Anticlock-wise ([1]; human, pH 7.4) | Chirality of Re-entry: Clock-wise ([1]; human, pH 7.4) | Chirality of Re-entry: Figure-of-eight ([1]; human, pH 7.4) | Chirality of Re-entry: Multi-origin ([1]; human, pH 7.4) | Frequency of re-entries (Mean ± SD) ([1]; human, pH 7.4) | No. of Re-entry, 1st dose ([1]; human, pH 7.4) | No. of Re-entry, 2nd dose ([1]; human, pH 7.4) | No. of Re-entry, 3rd dose ([1]; human, pH 7.4) | fold increase in incidence rate or arrhythmic risk normalized to corresponding vehicle control ([1]; human, pH 7.4) [fold] | risk of arrhythmia or sudden death during hospitalization ([2]; nested case-control study) | clinical QT prolongation / TdP liability ([2]; human, in vivo) | effect on AP at relatively low doses [1] | fold increase in risk compared to the vehicle control (DMSO) ([1]; human, 300 nM, pH 7.4) [fold] | reentrant events at relatively low doses ([1]; human, pH 7.4) | serum concentration associated with clinical TdP ([2]; serum) [nM]
1 | CC(=O)Oc1ccccc1C(=O)O [ASP, aspirin] | lower risk |  |  |  |  |  |  |  |  |  |  |  |  |  |  | 
2 | O=C(NCC1CCCCN1)c1cc(OCC(F)(F)F)ccc1OCC(F)(F)F (stereo not shown) [FLE, flecainide] | elevated risk | 3 | 1 | 1 | 0 | 1.92 ± 0.37 | 4^[a] | 1^[a] | 0 |  |  |  |  |  |  | 
3 | Cc1cccc(C)c1NC(=O)C(C)N (stereo not shown) [TOC, tocainide] | lower risk | 0 | 1 | 1 | 0 | 1.34 ± 0.52 | 0 | 1^[a] | 1 | 0.7 |  |  |  |  |  | 
4 | COc1cc(N)c(Cl)cc1C(=O)NC1CCN(CCCOc2ccc(F)cc2)CC1OC (stereo not shown) [CISA, cisapride] | elevated risk | 5 | 3 | 0 | 1 | 1.18 ± 0.40 | 2^[a] | 4^[a] | 3 | 2.7 | doubling or tripling |  |  |  |  | 
5 | COc1ccccc1OCC(O)CN1CCN(CC(=O)Nc2c(C)cccc2C)CC1 (stereo not shown) [ranolazine] |  |  |  |  |  |  |  |  |  |  |  | reasonably safe from causing TdP |  |  |  | 
6 | CCN(CC)CCNC(=O)c1ccc(N)cc1 [PROC, procainamide] | elevated risk | 3 | 0 | 0 | 0 | 1.53 ± 0.42 | 1^[a] | 2 | 0 | 2.3 |  |  |  |  |  | 
7 | CC(C)(C)c1ccc(C(O)CCCN2CCC(C(O)(c3ccccc3)c3ccccc3)CC2)cc1 (stereo not shown) [TERF, terfenadine] | elevated risk | 3 | 1 | 0 | 0 | 1.04 ± 0.31 | 0 | 0 | 4 |  |  |  | no apparent effects on AP | 1.2 | 0 of 16 | 120
